Data as given in the NIST ThermoML archive (doi:10.1021/je0341763).
± gives the expanded uncertainty stated by the source.

Legend:
[1] = xn = mol fraction of the nth substance listed; details: 298.15 K, Pendant drop shape
[2] = 298.15 K; for surface tension liquid-gas: Pendant drop shape; for mass density: 101.33 kPa, Liquid

Structure (SMILES): Cc1ccc(C)cc1 [1,4-dimethylbenzene] + CC(C)=O
- surface tension liquid-gas ([1]; x2 = 0.1027): 27.69 ± 0.29 mN/m
- surface tension liquid-gas ([1]; x2 = 0.2022): 27.41 ± 0.29 mN/m
- surface tension liquid-gas ([1]; x2 = 0.3029): 27.11 ± 0.29 mN/m
- surface tension liquid-gas ([1]; x2 = 0.3993): 26.78 ± 0.28 mN/m
- surface tension liquid-gas ([1]; x2 = 0.5009): 26.41 ± 0.28 mN/m
- surface tension liquid-gas ([1]; x2 = 0.6006): 25.98 ± 0.28 mN/m
- surface tension liquid-gas ([1]; x2 = 0.7005): 25.51 ± 0.28 mN/m
- surface tension liquid-gas ([1]; x2 = 0.8002): 25.03 ± 0.27 mN/m
- surface tension liquid-gas ([1]; x2 = 0.9007): 24.51 ± 0.27 mN/m

Structure (SMILES): Cc1ccccc1C [1,2-dimethylbenzene] + CC(C)=O
- surface tension liquid-gas ([1]; x2 = 0.0995): 29.13 ± 0.3 mN/m
- surface tension liquid-gas ([1]; x2 = 0.2016): 28.84 ± 0.3 mN/m
- surface tension liquid-gas ([1]; x2 = 0.3047): 28.45 ± 0.3 mN/m
- surface tension liquid-gas ([1]; x2 = 0.403): 28.07 ± 0.29 mN/m
- surface tension liquid-gas ([1]; x2 = 0.4999): 27.58 ± 0.29 mN/m
- surface tension liquid-gas ([1]; x2 = 0.6017): 26.99 ± 0.29 mN/m
- surface tension liquid-gas ([1]; x2 = 0.6991): 26.34 ± 0.28 mN/m
- surface tension liquid-gas ([1]; x2 = 0.7998): 25.65 ± 0.28 mN/m
- surface tension liquid-gas ([1]; x2 = 0.9002): 24.86 ± 0.27 mN/m

Structure (SMILES): Cc1cccc(C)c1 [1,3-dimethylbenzene]
- surface tension liquid-gas [2]: 28.36 ± 0.3 mN/m
- mass density [2]: 859.78 ± 0.49 kg/m3

Structure (SMILES): CCC(C)=O [butanone]
- surface tension liquid-gas [2]: 24.28 ± 0.27 mN/m
- mass density [2]: 799.62 ± 0.57 kg/m3

Structure (SMILES): Cc1cccc(C)c1 [1,3-dimethylbenzene] + CC(C)=O
- surface tension liquid-gas ([1]; x2 = 0.1027): 28.16 ± 0.3 mN/m
- surface tension liquid-gas ([1]; x2 = 0.1996): 27.95 ± 0.3 mN/m
- surface tension liquid-gas ([1]; x2 = 0.3049): 27.67 ± 0.29 mN/m
- surface tension liquid-gas ([1]; x2 = 0.4029): 27.31 ± 0.29 mN/m
- surface tension liquid-gas ([1]; x2 = 0.4993): 26.91 ± 0.29 mN/m
- surface tension liquid-gas ([1]; x2 = 0.6024): 26.41 ± 0.28 mN/m
- surface tension liquid-gas ([1]; x2 = 0.7002): 25.86 ± 0.28 mN/m
- surface tension liquid-gas ([1]; x2 = 0.801): 25.27 ± 0.27 mN/m
- surface tension liquid-gas ([1]; x2 = 0.9014): 24.66 ± 0.27 mN/m

Structure (SMILES): Cc1ccc(C)cc1 [1,4-dimethylbenzene]
- surface tension liquid-gas [2]: 27.89 ± 0.29 mN/m
- mass density [2]: 856.85 ± 0.46 kg/m3

Structure (SMILES): CCC(C)=O [butanone] + Cc1ccccc1C
- surface tension liquid-gas ([1]; x1 = 0.1001): 29 ± 0.3 mN/m
- surface tension liquid-gas ([1]; x1 = 0.2028): 28.58 ± 0.3 mN/m
- surface tension liquid-gas ([1]; x1 = 0.3001): 28.17 ± 0.3 mN/m
- surface tension liquid-gas ([1]; x1 = 0.4017): 27.68 ± 0.29 mN/m
- surface tension liquid-gas ([1]; x1 = 0.5006): 27.19 ± 0.29 mN/m
- surface tension liquid-gas ([1]; x1 = 0.6018): 26.65 ± 0.28 mN/m
- surface tension liquid-gas ([1]; x1 = 0.7012): 26.11 ± 0.28 mN/m
- surface tension liquid-gas ([1]; x1 = 0.8006): 25.55 ± 0.28 mN/m
- surface tension liquid-gas ([1]; x1 = 0.8994): 24.96 ± 0.27 mN/m

Structure (SMILES): CC(C)=O [acetone]
- surface tension liquid-gas [2]: 24.01 ± 0.26 mN/m
- mass density [2]: 784.39 ± 0.61 kg/m3

Structure (SMILES): Cc1ccccc1C [1,2-dimethylbenzene]
- surface tension liquid-gas [2]: 29.35 ± 0.3 mN/m
- mass density [2]: 875.92 ± 0.42 kg/m3

Structure (SMILES): CCC(C)=O [butanone] + Cc1ccc(C)cc1
- surface tension liquid-gas ([1]; x1 = 0.0999): 27.58 ± 0.29 mN/m
- surface tension liquid-gas ([1]; x1 = 0.2007): 27.27 ± 0.29 mN/m
- surface tension liquid-gas ([1]; x1 = 0.3001): 26.95 ± 0.29 mN/m
- surface tension liquid-gas ([1]; x1 = 0.402): 26.62 ± 0.28 mN/m
- surface tension liquid-gas ([1]; x1 = 0.5001): 26.28 ± 0.28 mN/m
- surface tension liquid-gas ([1]; x1 = 0.6006): 25.91 ± 0.28 mN/m
- surface tension liquid-gas ([1]; x1 = 0.7009): 25.51 ± 0.28 mN/m
- surface tension liquid-gas ([1]; x1 = 0.8009): 25.12 ± 0.27 mN/m
- surface tension liquid-gas ([1]; x1 = 0.8999): 24.71 ± 0.27 mN/m

Structure (SMILES): Cc1cccc(C)c1 [1,3-dimethylbenzene] + CCC(C)=O
- surface tension liquid-gas ([1]; x2 = 0.1044): 27.99 ± 0.3 mN/m
- surface tension liquid-gas ([1]; x2 = 0.2015): 27.66 ± 0.3 mN/m
- surface tension liquid-gas ([1]; x2 = 0.3028): 27.29 ± 0.29 mN/m
- surface tension liquid-gas ([1]; x2 = 0.4011): 26.93 ± 0.29 mN/m
- surface tension liquid-gas ([1]; x2 = 0.5013): 26.53 ± 0.28 mN/m
- surface tension liquid-gas ([1]; x2 = 0.6009): 26.11 ± 0.28 mN/m
- surface tension liquid-gas ([1]; x2 = 0.6999): 25.68 ± 0.28 mN/m
- surface tension liquid-gas ([1]; x2 = 0.7999): 25.24 ± 0.27 mN/m
- surface tension liquid-gas ([1]; x2 = 0.9): 24.76 ± 0.27 mN/m
